Results as given in patent US5852034A, “Benzo(5,6)cycloheptapyridine cyclic ureas and lactams useful as farnesyl protein transferase inhibitors” (Schering Corporation, priority 1997, dated 1998).

Key:
[1] = target: farnesyl protein transferase (Homo sapiens, UniProt P49354+P49356); experiment: FPT IC50 (inhibition of farnesyl protein transferase, in vitro enzyme assay); type: biochemical; conditions: procedures described in WO 95/10516
Experimental: (§1) FPT IC50 (inhibition of farnesyl protein transferase, in vitro enzyme assay), COS Cell IC50 (Cell-Based Assay), GGPT IC50 (inhibition of geranylgeranyl protein transferase, in vitro enzyme assay), Cell Mat Assay, and anti-tumor activity (in vivo anti-tumor studies) are determined by the assay procedures described in WO 95/10516.

[2] = tested on: Ras processing in COS cells; experiment: COS Cell IC50 (Cell-Based Assay), inhibition of Ras processing; conditions: procedures described in WO 95/10516
Experimental: as §1

Row | Compound | IC50 [1] | IC50 [2]
1 | O=C(CCN1CCCNC1=O)N1CCC([C@H]2c3ncc(Br)cc3CCc3cc(Cl)cc(Br)c32)CC1 [Example 11, (+)-4-(3,10-Dibromo-8-chloro-6,11-dihydro-5H-benzo[5,6]cyclohepta-[1,2-b]pyridin-11-yl)-1-[1-oxo-3-(hexahydo-2-oxo-1-pyrimidinyl)-oxopropyl]piperidine] | 20 nM | 
2 | O=C(CN1CCNC1=O)N1CCC([C@H]2c3ncc(Br)cc3CCc3cc(Cl)cc(Br)c32)CC1 [Example 7, (+)-4-(3,10-Dibromo-8-chloro-6,11-dihydro-5H-benzo[5,6]cyclohepta-[1,2-b]pyridin-11-yl)-1-[(2-oxo-1-imidazolidinyl)acetyl]piperidine] | 23 nM | 
3 | O=C(CCCN1CCCNC1=O)N1CCC([C@H]2c3ncc(Br)cc3CCc3cc(Cl)cc(Br)c32)CC1 [Example 12, (+)-4-(3,10-Dibromo-8-chloro-6,11-dihydro-5H-benzo[5,6]cyclohepta[1,2-b]pyridin-11-yl)-1-[4-(hexahydo-2-oxo-1-pyrimidinyl)oxobutyl]piperidine] | 56 nM | 
4 | O=C1CCCCN1CCCC(=O)N1CCC([C@H]2c3ncc(Br)cc3CCc3cc(Cl)cc(Br)c32)CC1 [Example 6, (+)-4-(3,10-Dibromo-8-chloro-6,11-dihydro-5H-benzo[5,6]cyclohepta-[1,2-b]pyridin-11-yl)-1-[1-oxo-4-(2-oxo-1-piperidinyl)butyl]piperidine] | 80 nM | 
5 | O=C1CCCN1CCCC(=O)N1CCC([C@H]2c3ncc(Br)cc3CCc3cc(Cl)cc(Br)c32)CC1 [Example 3, (+)-4-(3,10-Dibromo-8-chloro-6,11-dihydro-5H-benzo[5,6]cyclohepta-[1,2-b]pyridin-11-yl)-1-[1-oxo-4-(2-oxo-1-pyrrolidinyl)butyl]piperidine] | 85 nM | 

The next compounds have a lower IC50 [1] than those just listed; values first:

Row | IC50 [1] | Compound | IC50 [2]
6 | 19 nM | O=C1CCCCN1CCC(=O)N1CCC([C@H]2c3ncc(Br)cc3CCc3cc(Cl)cc(Br)c32)CC1 [Example 5, (+)-4-(3,10-Dibromo-8-chloro-6,11-dihydro-5H-benzo[5,6]cyclohepta-[1,2-b]pyridin-11-yl)-1-[1-oxo-3-(2-oxo-1-piperidinyl)propyl]piperidine] | 
7 | 4 nM | O=C(CN1CCCC1=O)N1CCC([C@H]2c3ncc(Br)cc3CCc3cc(Cl)cc(Br)c32)CC1 [Example 1, (+)-4-(3,10-Dibromo-8-chloro-6,11-dihydro-5H-benzo[5,6]cyclohepta-[1,2-b]pyridin-11-yl)-1-[(2-oxo-1-pyrrolidinyl)acetyl]piperidine] | 500 nM
8 | 2.8 nM | O=C(CN1CCCCC1=O)N1CCC([C@H]2c3ncc(Br)cc3CCc3cc(Cl)cc(Br)c32)CC1 [Example 4, (+)-4-(3,10-Dibromo-8-chloro-6,11-dihydro-5H-benzo[5,6]cyclohepta-[1,2-b]pyridin-11-yl)-1-[(2-oxo-1-piperidinyl)acetyl]piperidine] | 
9 | 3.2 nM | O=C(CN1CCCNC1=O)N1CCC([C@H]2c3ncc(Br)cc3CCc3cc(Cl)cc(Br)c32)CC1 [Example 10, (+)-4-(3,10-Dibromo-8-chloro-6,11-dihydro-5H-benzo[5,6]cyclohepta-[1,2-b]pyridin-11-yl)-1-[(hexahydro-2-oxo-1-pyrimidinyl)acetyl]piperidine] | 16 nM
10 | 16 nM | O=C(CCCN1CCNC1=O)N1CCC([C@H]2c3ncc(Br)cc3CCc3cc(Cl)cc(Br)c32)CC1 [Example 9] | 
